Source: US4684664A, “Derivatives of β-(4-isocyano-1,2,3,4-diepoxycyclopentyl) acrylic acid” (Kureha Kagaku Kogyo Kabushiki Kaisha, priority 1984, dated 1987)
Converted amounts (≈) assume the structure as drawn.

Columns and labels:
Format in all cases: cell-based
[1] = test system: Staphylococcus aureus FDA 209PJc-1; test: Antibacterial activity, agar-dilution MIC, organism No. 1; details: Staphylococcus aureus, FDA209PJC1; Organism No. 1, bouillon-agar; read-out: Minimum Inhibitory Concentration
Source text: (§1) Agar-dilution method was used for determination of the antibacterial activity and antifungal activity while using bouillon-agar culture medium, and the minimum inhibitory concentration of the specimen was expressed by μg/ml of the culture medium.

[2] = test system: Staphylococcus aureus Terajima; test: Antibacterial activity, agar-dilution MIC, organism No. 2; details: Staphylococcus aureus; Organism No. 2, bouillon-agar; read-out: Minimum Inhibitory Concentration
Source text: as §1

[3] = test system: Staphylococcus aureus MS 353; test: Antibacterial activity, agar-dilution MIC, organism No. 3; details: Staphylococcus aureus, MS353; Organism No. 3, bouillon-agar; read-out: Minimum Inhibitory Concentration
Source text: as §1

[4] = test system: Streptococcus pyogenes Cook; test: Antibacterial activity, agar-dilution MIC, organism No. 4; details: Streptococcus pyogenes; Organism No. 4, bouillon-agar; read-out: Minimum Inhibitory Concentration
Source text: as §1

[5] = test system: Escherichia coli NIHJ-JC-2; test: Antibacterial activity, agar-dilution MIC, organism No. 5; details: Escherichia coli, NIHJJC2; Organism No. 5, bouillon-agar; read-out: Minimum Inhibitory Concentration
Source text: as §1

[6] = test system: Escherichia coli K12 C600 IAM 1264; test: Antibacterial activity, agar-dilution MIC, organism No. 6; details: Escherichia coli, IAM1264; Organism No. 6, bouillon-agar; read-out: Minimum Inhibitory Concentration
Source text: as §1

[7] = test system: Klebsiella pneumoniae PCI-602; test: Antibacterial activity, agar-dilution MIC, organism No. 7; details: Klebsiella pneumoniae, PCI602; Organism No. 7, bouillon-agar; read-out: Minimum Inhibitory Concentration
Source text: as §1

[8] = test system: Salmonella typhimurium IID 971; test: Antibacterial activity, agar-dilution MIC, organism No. 8; details: Salmonella enterica; Organism No. 8, bouillon-agar; read-out: Minimum Inhibitory Concentration
Source text: as §1

[9] = test system: Salmonella typhi 901; test: Antibacterial activity, agar-dilution MIC, organism No. 9; details: Salmonella enterica, TYPHI, read-out: Minimum Inhibitory Concentration
Source text: as §1

[10] = test system: Salmonella paratyphi-A 1015; test: Antibacterial activity, agar-dilution MIC, organism No. 10; details: Salmonella enterica, PARATYPHI, read-out: Minimum Inhibitory Concentration
Source text: as §1

[11] = test system: Salmonella shottmuelleri 8006; test: Antibacterial activity, agar-dilution MIC, organism No. 11; details: Salmonella, 8006; Organism No. 11, bouillon-agar; read-out: Minimum Inhibitory Concentration
Source text: as §1

[12] = test system: Salmonella enteritidis G 14; test: Antibacterial activity, agar-dilution MIC, organism No. 12; details: Salmonella enterica, ENTERITIDIS; Organism No. 12, bouillon-agar; read-out: Minimum Inhibitory Concentration
Source text: as §1

[13] = test system: Bacillus subtilis ATCC 6633; test: Antibacterial activity, agar-dilution MIC, organism No. 14; details: Bacillus subtilis, ATCC6633; Organism No. 14, bouillon-agar; read-out: Minimum Inhibitory Concentration
Source text: as §1

[14] = test system: Pseudomonas aeruginosa IFO 3445; test: Antibacterial activity, agar-dilution MIC, organism No. 15; details: Pseudomonas aeruginosa, IFO3445; Organism No. 15, bouillon-agar; read-out: Minimum Inhibitory Concentration
Source text: as §1

[15] = test system: Pseudomonas aeruginosa NCTC 10490; test: Antibacterial activity, agar-dilution MIC, organism No. 16; details: Pseudomonas aeruginosa, NCTC10490; Organism No. 16, bouillon-agar; read-out: Minimum Inhibitory Concentration
Source text: as §1

[16] = test system: Pseudomonas aeruginosa PAO 1; test: Antibacterial activity, agar-dilution MIC, organism No. 17; details: Pseudomonas aeruginosa, PAO1; Organism No. 17, bouillon-agar; read-out: Minimum Inhibitory Concentration
Source text: as §1

[17] = test system: Proteus morganii IFO 3848; test: Antibacterial activity, agar-dilution MIC, organism No. 18; details: Morganella morganii, IFO3848; Organism No. 18, bouillon-agar; read-out: Minimum Inhibitory Concentration
Source text: as §1

[18] = test system: Proteus mirabilis IFO 3849; test: Antibacterial activity, agar-dilution MIC, organism No. 19; details: Proteus mirabilis, IFO3849; Organism No. 19, bouillon-agar; read-out: Minimum Inhibitory Concentration
Source text: as §1

[19] = test system: Proteus vulgaris OX-19; test: Antibacterial activity, agar-dilution MIC, organism No. 20; details: Proteus vulgaris, OX19; Organism No. 20, bouillon-agar; read-out: Minimum Inhibitory Concentration
Source text: as §1

[20] = test system: Proteus vulgaris HX-19; test: Antibacterial activity, agar-dilution MIC, organism No. 21; details: Proteus vulgaris, HX19; Organism No. 21, bouillon-agar; read-out: Minimum Inhibitory Concentration
Source text: as §1

[21] = test system: Proteus rettgeri IFO 3850; test: Antibacterial activity, agar-dilution MIC, organism No. 22; details: Providencia rettgeri, IFO3850; Organism No. 22, bouillon-agar; read-out: Minimum Inhibitory Concentration
Source text: as §1

[22] = test system: Enterobacter aerogenes ATCC 13048; test: Antibacterial activity, agar-dilution MIC, organism No. 23; details: Klebsiella aerogenes, ATCC13048; Organism No. 23, bouillon-agar; read-out: Minimum Inhibitory Concentration
Source text: as §1

[23] = test system: Enterobacter cloacae 963; test: Antibacterial activity, agar-dilution MIC, organism No. 24; details: Enterobacter cloacae, 963; Organism No. 24, bouillon-agar; read-out: Minimum Inhibitory Concentration
Source text: as §1

[24] = test system: Micrococcus luteus ATCC 9341; test: Antibacterial activity, agar-dilution MIC, organism No. 25; details: Micrococcus luteus, ATCC9341; Organism No. 25, bouillon-agar; read-out: Minimum Inhibitory Concentration
Source text: as §1

[25] = test system: Streptococcus pyogenes IFO 3340; test: Antibacterial activity, agar-dilution MIC, organism No. 26; details: Streptococcus pyogenes, IFO3340; Organism No. 26, bouillon-agar; read-out: Minimum Inhibitory Concentration
Source text: as §1

[26] = test system: Streptococcus faecium IFO 3826; test: Antibacterial activity, agar-dilution MIC, organism No. 27; details: Enterococcus faecium, IFO3826; Organism No. 27, bouillon-agar; read-out: Minimum Inhibitory Concentration
Source text: as §1

[27] = test system: Mycoplasma pneumoniae IID817; test: Antimycoplasmal activity, MIC by phenol red colour change, organism No. 28; details: Mycoplasma, IID817; Organism No. 28, PPLO broth + 1% glucose, 37° C.; read-out: Minimum Inhibitory Concentration (MIC)
Procedure: Mycoplasma pneumoniae IID817 was used as the test microorganism in a culture medium prepared by adding 1% of glucose to "PPLO broth (manufactured by Difco Co.) liquid culture medium" at 37° C. with phenol red as an indicator, thereby culturing the test microorganism.

[28] = test system: Candida albicans IAM 4905; test: Antifungal activity, agar-dilution MIC, organism No. 29; details: Candida albicans, IAM4905; Organism No. 29, bouillon-agar; read-out: Minimum Inhibitory Concentration
Source text: as §1

[29] = test system: Aspergillus niger IFO 6342; test: Antifungal activity, agar-dilution MIC, organism No. 30; details: Aspergillus niger, IFO6342; Organism No. 30, bouillon-agar; read-out: Minimum Inhibitory Concentration
Source text: as §1

Structure (SMILES) | MIC [1] | MIC [2] | MIC [3] | MIC [4] | MIC [5] | MIC [6] | MIC [7] | MIC [8] | MIC [9] | MIC [10] | MIC [11] | MIC [12] | MIC [13] | MIC [14] | MIC [15] | MIC [16] | MIC [17] | MIC [18] | MIC [19] | MIC [20] | other results
[C-]#[N+]C12CC3(/C=C/C(=O)N(C(=O)NC4CCCCC4)C4CCCCC4)OC3C1O2 (stereo not drawn) [Compound No. 25] | 0.1 µg/mL (≈ 0.25 µM) | 0.78 µg/mL (≈ 1.95 µM) | 0.78 µg/mL (≈ 1.95 µM) | 1.56 µg/mL (≈ 3.9 µM) | 12.5 µg/mL (≈ 31.3 µM) | 6.25 µg/mL (≈ 15.6 µM) | 100 µg/mL (≈ 250 µM) | 100 µg/mL (≈ 250 µM) | 100 µg/mL (≈ 250 µM) | 0.1 µg/mL (≈ 0.25 µM) | 0.1 µg/mL (≈ 0.25 µM) | 100 µg/mL (≈ 250 µM) | 0.39 µg/mL (≈ 0.976 µM) | > 100 µg/mL | > 100 µg/mL | > 100 µg/mL | > 100 µg/mL | > 200 µg/mL | 25 µg/mL (≈ 62.6 µM) | 0.1 µg/mL (≈ 0.25 µM) | MIC [21]: > 200 µg/mL; MIC [22]: > 100 µg/mL; MIC [23]: 50 µg/mL (≈ 125 µM); MIC [24]: < 0.05 µg/mL; MIC [25]: 6.25 µg/mL (≈ 15.6 µM); MIC [26]: 6.25 µg/mL (≈ 15.6 µM); MIC [27]: 1.56 µg/mL; MIC [28]: 3.13 µg/mL (≈ 7.83 µM); MIC [29]: 6.25 µg/mL (≈ 15.6 µM)
[C-]#[N+]C12CC3(/C=C/C(=O)NCc4ccccc4)OC3C1O2 (stereo not drawn) [Compound No. 24] | 0.78 µg/mL (≈ 2.76 µM) | 1.56 µg/mL (≈ 5.53 µM) | 0.78 µg/mL (≈ 2.76 µM) | 6.25 µg/mL (≈ 22.1 µM) | 12.5 µg/mL (≈ 44.3 µM) | 6.25 µg/mL (≈ 22.1 µM) | 1.56 µg/mL (≈ 5.53 µM) | 6.25 µg/mL (≈ 22.1 µM) | 3.13 µg/mL (≈ 11.1 µM) | 1.56 µg/mL (≈ 5.53 µM) | 0.78 µg/mL (≈ 2.76 µM) | 1.56 µg/mL (≈ 5.53 µM) | 12.5 µg/mL (≈ 44.3 µM) | > 100 µg/mL | > 100 µg/mL | > 100 µg/mL | 1.56 µg/mL (≈ 5.53 µM) | 12.5 µg/mL (≈ 44.3 µM) | 0.78 µg/mL (≈ 2.76 µM) | < 0.05 µg/mL | MIC [21]: 3.13 µg/mL (≈ 11.1 µM); MIC [22]: > 100 µg/mL; MIC [23]: > 100 µg/mL; MIC [24]: < 0.05 µg/mL; MIC [25]: 6.25 µg/mL (≈ 22.1 µM); MIC [26]: 1.56 µg/mL (≈ 5.53 µM); MIC [27]: < 0.2 µg/mL; MIC [28]: 0.2 µg/mL (≈ 0.708 µM); MIC [29]: 1.56 µg/mL (≈ 5.53 µM)
[C-]#[N+]C12CC3(/C=C/C(=O)N[C@@H](CC(=O)OCc4ccccc4)C(=O)OCc4ccccc4)OC3C1O2 (stereo partly drawn) [Compound No. 29] | < 1.56 µg/mL | 6.25 µg/mL (≈ 12.8 µM) | 3.13 µg/mL (≈ 6.41 µM) | > 200 µg/mL | > 200 µg/mL | > 200 µg/mL | > 200 µg/mL | > 200 µg/mL | > 200 µg/mL | > 200 µg/mL | > 200 µg/mL | > 200 µg/mL | 25 µg/mL (≈ 51.2 µM) | > 200 µg/mL | > 200 µg/mL | > 200 µg/mL | > 200 µg/mL | > 200 µg/mL | > 200 µg/mL | 25 µg/mL (≈ 51.2 µM) | MIC [21]: > 200 µg/mL; MIC [22]: > 200 µg/mL; MIC [23]: > 200 µg/mL; MIC [24]: < 1.56 µg/mL; MIC [25]: > 200 µg/mL; MIC [26]: 6.25 µg/mL (≈ 12.8 µM); MIC [27]: > 100 µg/mL; MIC [28]: > 100 µg/mL; MIC [29]: > 100 µg/mL
